From US20160030407A1, “Method of Treating Inflammatory Lung Disease” (priority 2010, published 2016)
Several values for one entry are separate records, joined by “and”; a condition that tells them apart may be missing. Equal values may be shown once.

Experiments:
[1] = Brain extract concentrations after single i.v. bolus; assay type: in vivo, Sprague-Dawley rats; conditions: for Concentration in rat brain extract: individual rats
Description: Six rats (3 males and 3 females) were dosed per dose group. […] Plasma and brain homogenates were stored at −80° C. until analysis.
An additional 48 rats (24 males and 24 females) received a single intravenous dose via the tail vein at the same doses as mentioned above. At 30 and 360 minutes post administration, 6 rats (3 males and 3 females) per dose group, per time point were euthanized, bled via cardiac puncture, and perfused, and brains were collected. The brains were homogenized. Blood was spun, and plasma was collected. Plasma and brain homogenate were stored at −80° C.
The animals were weighed prior to dosing and received a single i.v. dose of either test compound at a volume of 5 mL/kg. Blood was collected via the venus plexus (retro-orbital) into tubes containing (K2) EDTA. No more than 0.5 mL was collected per time point. […] The brain was removed, weighed, homogenized in sterile 0.9% saline at a volume equal to its weight, and stored at −80° C.
The amount of the test agent in the supernatant was determined by liquid chromatography tandem mass spectrometry (LC/MS/MS).
(§1) Analysis. Samples were analyzed by LC/MS/MS using an Agilent 6410 mass spectrometer coupled with an Agilent 1200 high pressure liquid chromatography (HPLC) and a CTC PAL chilled autosampler, all controlled by MassHunter software (Agilent). After separation on a hydrophilic interaction liquid chromatography (HILIC) HPLC column (Sepax) using an acetonitrile-ammonium acetate/acetic acid gradient system, peaks were analyzed by mass spectrometry (MS) using ESI ionization in multiple reaction monitoring (MRM) mode. MassHunter software was used to calculate the concentration of the test compounds in samples from the peak area using the appropriate calibration curves.

[2] = Plasma pharmacokinetics after oral multi-dose anatabine polacrilex; assay type: in vivo, Sprague-Dawley rats; conditions: for Anatabine Concentration in rat plasma: dose 0.2 mg/kg, male, individual animals
Description: This study consisted of two groups of 8 animals each, 4 males and 4 females.
The vehicle was sterile phosphate buffered saline (PBS) (Amresco). […] Two formulations were prepared; one for each of the two treatment groups. The test compound was formulated for each treatment group just prior to the first dose administration and constantly stirred until dosing was completed (Table 37). Four aliquots of each dose level formulation were collected and stored at −80° C.
The animals were weighed prior to dosing and received three doses p.o. of test compound at a volume of 5 mL/kg. Blood was collected via the venus plexus (retro-orbital) into tubes containing (K2) EDTA. No more than 0.5 mL was collected per time point.
Sample preparation. Plasma samples were treated with three volumes of methanol containing internal standard at 1 μM (R,S)-Antabine-2,4,5,6-d4), incubated 10 min at 4° C., and centrifuged. The amount of the test agent in the supernatant was determined by LC/MS/MS.
as §1, with “Hydrophilic” for “hydrophilic”
Descriptive statistics were calculated for all pharmacokinetic parameters. Elimination half-lives (t1/2) were calculated by linear regression of logarithmically transformed plasma concentration data for each period between doses and following the final dose.
Total areas under the plasma concentration curves (AUC) and under the first moment curves (AUMC) were calculated using linear trapezoidal summation across all concentration time points as well as for intervals between each dose administration and following the final dose. […] Mean absorption times (MAT) were calculated according to the following relation: […]

[3] = Anatabine 0.6 mg/kg, female rats, mean
[4] = Anatabine 0.6 mg/kg, male and female combined, mean
[5] = Anatabine 0.6 mg/kg, male rats, mean
[6] = Anatabine 6.0 mg/kg, female rats, mean
[7] = Anatabine 6.0 mg/kg, male and female combined, mean
[8] = Anatabine 6.0 mg/kg, male rats, mean
[9] = all data combined (overall), mean
[10] = both treatment groups combined, female rats, mean
[11] = females, 6.0 mg/kg BW group (3 x 2.0 mg/kg p.o.)

C1=CCC(c2cccnc2)NC1 (racemic) [Anatabine, 1,2,3,6-tetrahydro-[2,3′]bipyridinyl]
Concentration in rat brain extract ([1]; Anatabine 0.1 mg/kg dose group, time point 0.5 hr): <LLQ | Concentration in rat brain extract ([1]; Anatabine 0.1 mg/kg dose group, time point 6 hr): <LLQ | Concentration in rat brain extract ([1]; Anatabine 0.1 mg/kg dose group, time point 24 hr): <LLQ | Concentration in rat brain extract ([1]; Anatabine 0.75 mg/kg dose group, time point 24 hr): <LLQ | Concentration in rat brain extract ([1]; Anatabine 1.0 mg/kg dose group, time point 6 hr): <LLQ | Concentration in rat brain extract ([1]; Anatabine 1.0 mg/kg dose group, time point 24 hr): <LLQ | Avg. Conc. (Combined Male and Female) ([1]; Rat Brain, Anatabine 0.75 mg/kg, combined, 24 hr): <LLQ | Avg. Conc. (Male or Female) ([1]; Rat Brain, Anatabine 0.75 mg/kg, female, 24 hr): <LLQ | Avg. Conc. (Male or Female) ([1]; Rat Brain, Anatabine 0.75 mg/kg, male, 24 hr): <LLQ | Avg. Conc. (Male or Female) ([1]; Rat Brain, Anatabine 1.0 mg/kg, female, 24 hr): <LLQ | appearance in brain tissue ([1]; rat, following i.v. administration): rapidly appear in brain tissue | Mean concentration in rat brain extracts ([1]; single i.v. 0.75 mg/kg, female, 24 hr): <LLQ | Mean concentration in rat brain extracts ([1]; single i.v. 0.75 mg/kg, male, 24 hr): <LLQ | Mean concentration in rat brain extracts ([1]; single i.v. 1.0 mg/kg, female, 24 hr): <LLQ | AUC0→∞ [2, 3]: 290 ng·h/mL | MAT0→4 (mean absorption time) [2, 3]: 0.53 h | t1/2, 0→4 (elimination half-life after first dose) [2, 3]: 2.06 h | t1/2, terminal [2, 3]: 1.80 h | MAT0→4 (mean absorption time) [2, 4]: 0.61 h | MTT0→4 (mean transit time) [2, 4]: 3.06 h | AUC0→∞ [2, 5]: 280 ng·h/mL | MAT0→4 (mean absorption time) [2, 5]: 0.71 h | t1/2, terminal [2, 5]: 1.78 h | Cp, max (1) ([2]; Anatabine 6.0 mg/kg, female rats, after dose 1, mean): 260 ng/mL | MAT0→4 (mean absorption time) [2, 6]: 0.30 h | t1/2, 0→4 (elimination half-life after first dose) [2, 6]: 1.82 h | MAT0→4 (mean absorption time) [2, 7]: 0.52 h | MTT0→4 (mean transit time) [2, 7]: 2.97 h | MAT0→4 (mean absorption time) [2, 8]: 0.73 h | t1/2, 0→4 (elimination half-life after first dose) [2, 8]: 1.76 h | concentration at 30 min ([2]; Sprague-Dawley, rat, plasma, oral, 2 mg/kg BW, dose group 2, female, 30 min, mean): 160 ng/mL | concentration at 60 min ([2]; Sprague-Dawley, rat, plasma, oral, 2 mg/kg BW, dose group 2, female, 60 min, mean): 129 ng/mL | concentration at 235 min ([2]; Sprague-Dawley, rat, plasma, oral, 2 mg/kg BW, dose group 2, female, 235 min, mean): 44 ng/mL | concentration at 270 min ([2]; Sprague-Dawley, rat, plasma, oral, 2 mg/kg BW, dose group 2, female, 270 min, mean): 316 ng/mL | concentration at 300 min ([2]; Sprague-Dawley, rat, plasma, oral, 2 mg/kg BW, dose group 2, female, 300 min, mean): 234 ng/mL | concentration at 475 min ([2]; Sprague-Dawley, rat, plasma, oral, 2 mg/kg BW, dose group 2, female, 475 min, mean): 192 ng/mL | concentration at 540 min ([2]; Sprague-Dawley, rat, plasma, oral, 2 mg/kg BW, dose group 2, female, 540 min, mean): 386 ng/mL | concentration at 600 min ([2]; Sprague-Dawley, rat, plasma, oral, 2 mg/kg BW, dose group 2, female, 600 min, mean): 325 ng/mL | concentration at 720 min ([2]; Sprague-Dawley, rat, plasma, oral, 2 mg/kg BW, dose group 2, female, 720 min, mean): 208 ng/mL | MAT0→4 (mean absorption time) [2, 9]: 0.56 h | MTT0→4 (mean transit time) [2, 9]: 3.01 h | t1/2, 0→4 (elimination half-life after first dose) [2, 9]: 1.93 h | MAT0→4 (mean absorption time) [2, 10]: 0.42 h | MTT0→4 (mean transit time) [2, 10]: 2.87 h | t1/2, 0→4 (elimination half-life after first dose) [2, 10]: 1.94 h | MAT0→4 (mean absorption time) ([2]; both treatment groups combined, male rats, mean): 0.72 h | Anatabine Concentration in rat plasma ([2]; 30 min): <LOQ | Anatabine Concentration in rat plasma ([2]; 235 min): <LOQ | Anatabine Concentration in rat plasma ([2]; 475 min): <LOQ | Anatabine Concentration in rat plasma ([2]; 600 min): <LOQ | Anatabine Concentration in rat plasma ([2]; 720 min): <LOQ | Avg. Conc. of Anatabine in plasma ([2]; dose group 0.2, combined male and female, 30 min, mean): 36 ng/mL | Avg. Conc. of Anatabine in plasma ([2]; dose group 0.2, combined male and female, 60 min, mean): 31 ng/mL | Avg. Conc. of Anatabine in plasma ([2]; dose group 0.2, combined male and female, 235 min, mean): 10 ng/mL | Avg. Conc. of Anatabine in plasma ([2]; dose group 0.2, combined male and female, 270 min, mean): 26 ng/mL | Avg. Conc. of Anatabine in plasma ([2]; dose group 0.2, combined male and female, 300 min, mean): 27 ng/mL | Avg. Conc. of Anatabine in plasma ([2]; dose group 0.2, combined male and female, 475 min, mean): 11 ng/mL | Avg. Conc. of Anatabine in plasma ([2]; dose group 0.2, combined male and female, 540 min, mean): 30 ng/mL | Avg. Conc. of Anatabine in plasma ([2]; dose group 0.2, combined male and female, 600 min, mean): 26 ng/mL | Avg. Conc. of Anatabine in plasma ([2]; dose group 0.2, combined male and female, 720 min, mean): 13 ng/mL | Avg. Conc. of Anatabine in plasma ([2]; dose group 0.2, female, 30 min, mean): 37 ng/mL | Avg. Conc. of Anatabine in plasma ([2]; dose group 0.2, female, 60 min, mean): 35 ng/mL | Avg. Conc. of Anatabine in plasma ([2]; dose group 0.2, female, 235 min, mean): 12 ng/mL | Avg. Conc. of Anatabine in plasma ([2]; dose group 0.2, female, 270 min, mean): 26 ng/mL | Avg. Conc. of Anatabine in plasma ([2]; dose group 0.2, female, 300 min, mean): 34 ng/mL | Avg. Conc. of Anatabine in plasma ([2]; dose group 0.2, female, 475 min, mean): 8 ng/mL | Avg. Conc. of Anatabine in plasma ([2]; dose group 0.2, female, 540 min, mean): 34 ng/mL | Avg. Conc. of Anatabine in plasma ([2]; dose group 0.2, female, 600 min, mean): 28 ng/mL | Avg. Conc. of Anatabine in plasma ([2]; dose group 0.2, female, 720 min, mean): 12 ng/mL | Avg. Conc. of Anatabine in plasma ([2]; dose group 0.2, male, 30 min, mean): 33 ng/mL | Avg. Conc. of Anatabine in plasma ([2]; dose group 0.2, male, 60 min, mean): 30 ng/mL | Avg. Conc. of Anatabine in plasma ([2]; dose group 0.2, male, 235 min, mean): 11 ng/mL | Avg. Conc. of Anatabine in plasma ([2]; dose group 0.2, male, 270 min, mean): 26 ng/mL | Avg. Conc. of Anatabine in plasma ([2]; dose group 0.2, male, 300 min, mean): 26 ng/mL | Avg. Conc. of Anatabine in plasma ([2]; dose group 0.2, male, 475 min, mean): 18 ng/mL | Avg. Conc. of Anatabine in plasma ([2]; dose group 0.2, male, 540 min, mean): 38 ng/mL | Avg. Conc. of Anatabine in plasma ([2]; dose group 0.2, male, 600 min, mean): 29 ng/mL | Avg. Conc. of Anatabine in plasma ([2]; dose group 0.2, male, 720 min, mean): 12 ng/mL | Avg. Conc. of Anatabine in plasma ([2]; dose group 2, combined male and female, 30 min, mean): 201 ng/mL | Avg. Conc. of Anatabine in plasma ([2]; dose group 2, combined male and female, 60 min, mean): 139 ng/mL | Avg. Conc. of Anatabine in plasma ([2]; dose group 2, combined male and female, 235 min, mean): 63 ng/mL | Avg. Conc. of Anatabine in plasma ([2]; dose group 2, combined male and female, 300 min, mean): 222 ng/mL | Avg. Conc. of Anatabine in plasma ([2]; dose group 2, combined male and female, 600 min, mean): 237 ng/mL | Avg. Conc. of Anatabine in plasma ([2]; dose group 2, combined male and female, 720 min, mean): 194 ng/mL | Avg. Conc. of Anatabine in plasma ([2]; dose group 2, male, 30 min, mean): 243 ng/mL | Avg. Conc. of Anatabine in plasma ([2]; dose group 2, male, 60 min, mean): 165 ng/mL | Avg. Conc. of Anatabine in plasma ([2]; dose group 2, male, 235 min, mean): 72 ng/mL | Avg. Conc. of Anatabine in plasma ([2]; dose group 2, male, 270 min, mean): 303 ng/mL | Avg. Conc. of Anatabine in plasma ([2]; dose group 2, male, 300 min, mean): 183 ng/mL | Avg. Conc. of Anatabine in plasma ([2]; dose group 2, male, 475 min, mean): 97 ng/mL | Avg. Conc. of Anatabine in plasma ([2]; dose group 2, male, 540 min, mean): 226 ng/mL | Avg. Conc. of Anatabine in plasma ([2]; dose group 2, male, 600 min, mean): 151 ng/mL | Avg. Conc. of Anatabine in plasma ([2]; dose group 2, male, 720 min, mean): 203 ng/mL | Cp, max, final value [2, 11]: 374.8 ± 122.9 ng/mL | Cp, max, initial value [2, 11]: 259.8 ± 35.4 ng/mL | Cp, min(2) ([2]; females, 6.0 mg/kg BW group, 6 mg/kg): 180 ± 31 ng/mL and 180.0 ± 30.7 ng/mL
